Legend:
Assay type in all cases: functional, cell-based
[1] = tested on: A549; test: Cytotoxicity against human A549 cells after 24 hrs by MTT assay; settings: A549, 24 h
[2] = Cytotoxicity against human Tca cells after 24 hrs by MTT assay
[3] = Cytotoxicity against human Bel7404 cells after 24 hrs by MTT assay; settings: BEL-7404, 24 h

Structure (SMILES): CC1=C(/C=C/C(C)=C/C=C/C(C)=C\C(=O)O)C(C)(C)CCC1 [ISOTRETINOIN]
- IC50 [1]: 35.8 µM
- IC50 [2]: 39.7 µM
- IC50 [3]: 42.6 µM
